Data set [1] has as its system SK-Mel-103 melanoma cells. As to the kind of experiment: GFP-LC3 foci fluorescence analysis of autophagy. In kind it is cell-based, human. As to conditions: with BO-110 treatment, 12 h. As to the method: An eGFP-LC3 fusion cloned into the pCNA expression vector was a gift from Gabriel Nidiez (University of Michigan Cancer Center). eGFP-LC3 and the fragments eGFP-Rab7wt, eGFP-Rab7 T22N, eGFP-Rab5wt, eGFP-Cherry-LC3 and Cherry-LC3 were cloned into the pLVO-puro lentiviral vector for stable gene transfer. […] GFP-LC3-associated fluorescence emission was imaged using a LEICA™ AF6000 fluorescence microscope and images were analyzed by LAS AF V1.9 (Leica, Solms, Germany). For confocal real time microscopy, we used a LEICA™ TCS-SP2-AOBS-UV ultra-spectral microscope coupled to a CO2 and temperature-controlled incubation chamber. Images were analyzed by LCS (Leica, Solms, Germany). […] Co-localization images were analyzed with LAS AF V1.9 (Leica, Solms, Germany).
To address the role of autophagy in the response of melanoma to drugs, a discriminative analysis based in GFP-LC3 was used to screen commercially available chemotherapeutic drugs and immunomodulators. Melanoma cells were stably transfected with lentiviral vectors expressing derivatives of the autophagosomal LC3 marker with GFP, such as pLVO-eGFP-LC3.
Subsequent validation studies were performed on a panel of human cell lines of diverse genetic background (see below).

Data set [2] concerns SK-Mel-103. The experiment in a line: Cell death by trypan blue exclusion, SK-Mel-103. In kind it is cell-based, human.
The subject of data set [3] is SK-Mel-147. The experiment in a line: Cell death by trypan blue exclusion, SK-Mel-147. In kind it is cell-based, human. As to conditions: for effect of antioxidant on cell death by BO-110: BO-110 plus ROS scavenger.
Data set [4] deals with SK-Mel-19. The experiment in a line: Cell death by trypan blue exclusion, SK-Mel-19. In kind it is cell-based, human. As to conditions: doxorubicin 0.5 μg/ml, 30 h. As to the method: (§1) Cell viability assays in response to drug treatments were done after seeding melanocytes and melanoma cells at least 12 hours before drug treatment. The percentage of cell death at the indicated times and treatment concentrations was estimated by standard trypan blue exclusion assays as previously described (Wolter et al., 2007; Fernández et al., 2005).

The subject of data set [5] is SK-Mel-28. The experiment in a line: Cell death by trypan blue exclusion, SK-Mel-28. The class given is cell-based, human. As to conditions: doxorubicin 0.5 μg/ml, 30 h. On the procedure:
as §1

The subject of data set [6] is NOXA. As to the kind of experiment: NOXA protein levels by immunoblotting and densitometry. The class given is cell-based, human. As to conditions: SK-Mel-28 or SK-Mel-147 melanoma cells.
In data set [7] the test system is MCL-1. As to the kind of experiment: MCL-1 protein levels by immunoblotting. As to conditions: melanoma cells. The class given is cell-based, human. On the procedure: To determine changes in protein levels, 2×10^6 cells were treated as indicated and harvested at different times after treatment. Total cell lysates were subjected to electrophoresis in 10, 12 or 4-15% gradient SDS gels under reducing conditions, and subsequently transferred to IMMOBILON-P® (0.45 um pore size hydrophobic polyvinylidene fluoride, PVDF) membranes (Millipore, Bedford, Mass., USA). Protein bands were detected by the ECL system (GE Healthcare, Buckinghamshire, UK).
Secondary antibodies were either anti-mouse or anti-rabbit from GE Healthcare. Image J was used to quantify changes in proteins levels induced by the different treatments, considering untreated controls as reference for basal expression.
To assess similarities and differences between bortezomib and pIC (naked or complexed with PEI), melanoma cells were incubated with each of these compounds and extracts were collected at different time points after treatment to assess the levels of NOXA, MCL-1, and other Bcl-2 family members (Bcl-xL or Bcl-2). Results are shown in FIGS. 9A, 9B, 9C, 9D, 9E, and 9F.

For data set [8], the system named is MDA-5. As to the kind of experiment: MDA-5 proteolytic cleavage by immunoblotting. The class given is cell-based, human. As to conditions: SK-Mel-28 and SK-Mel-147 cell extracts.
Procedure: This analysis was carried out by immunoblotting extracts from SK-Mel-28 and SK-Mel-147 cells treated with PEI, pIC or BO-110, after subjecting these extracts to electrophoresis. As a positive control for efficient induction of cell death bortezomib was used.
In data set [9] the test system is SK-Mel-103 cells. As to the kind of experiment: Confocal microscopy of autolysosomes, lysosomal activity and endosomes. In kind it is cell-based, human. The text has this:
An eGFP-LC3 fusion cloned into the pCNA expression vector was a gift from Gabriel Nidiez (University of Michigan Cancer Center). eGFP-LC3 and the fragments eGFP-Rab7wt, eGFP-Rab7 T22N, eGFP-Rab5wt, eGFP-Cherry-LC3 and Cherry-LC3 were cloned into the pLVO-puro lentiviral vector for stable gene transfer. Melanoma derived cells (i.e., SK-Mel-103) were infected with pLVO-eGFP-LC3 and selected with puromycin. GFP-LC3-associated fluorescence emission was imaged using a LEICA™ AF6000 fluorescence microscope and images were analyzed by LAS AF V1.9 (Leica, Solms, Germany). […] Images were analyzed by LCS (Leica, Solms, Germany). […] Co-localization images were analyzed with LAS AF V1.9 (Leica, Solms, Germany). […]
To independently monitor lysosomal activity during BO-110 treatment, cells were tested for the ability to process DQ-BSA (a derivative of BSA whose green fluorescence is quenched unless cleaved by proteolytic enzymes). […] Note that DQ-BSA emission was detected at the lysosomes, as indicated by colocalization with LYSOTRACKER® Red, a dye whose cell permeability is pH dependent and emits red fluorescence when incorporated into functional lysosomes acids). […]
Having determined that autophagosomes fuse to active lysosomes in response to BO-110, we assessed whether these organelles interacted with or were recruited to endosomes.

For data set [10], the system named is IFIT-1. As to the kind of experiment: IFIT-1 mRNA by quantitative PCR, bone-marrow-derived macrophages. The class given is cell-based. As to the method:
(§2) Human interferon alpha was measured in culture supernatants by enzyme-linked immunoabsorbent assay (ELISA). The human IFN-α ELISA Kit and recombinant hIFN-α were purchased from PBL Interferon Source (Piscataway, N.Y.) and used according to the manufacturer's protocol. IFN-α expression level was measured from bone-marrow-derived macrophages (BMDMs) and B16 melanoma cells by real-time PCR. BMDMs were prepared, plated and treated as previously described (Celada et al., 1984). Real-time quantitative PCR analysis of IFIT-1 RNA transcripts was performed using TAQMAN® primer and probes obtained from Applied Biosystems on an Applied Biosystems 7700 sequence detector after normalization with […].
(§3) pIC is a classical inducer of IFN-driven cellular immunity (Wenzel et al., 2008). […] To assess this possibility, B16 melanoma cells and macrophages were tested for their ability to secrete and respond to IFN-α. […] This is expected, as these cells can efficiently sense viral dsRNA.

In data set [11] the test system is melanoma cell lines (SK-Mel-19, -28, -103, -147, and B16). As to the kind of experiment: Cell death by trypan blue exclusion, melanoma cell lines. The class given is cell-based, human and murine. As to conditions: naked pIC versus PEI-complexed pIC. On the procedure:
as §1
With these lines, tests were conducted similar to those described in Example 1 for SK-Mel-103 cell line, to verify the sensitivity of each of these cells to pIC and PEI as independent agents or used in combination.

Data set [12] has as its system SK-Mel-103 cells. The experiment in a line: Ultrastructural analysis by transmission electron microscopy. In kind it is cell-based, human. As to conditions: 5-12 h after treatment. On the procedure:
For transmission electron microscopy (TEM), the indicated cell populations were rinsed with […] buffer, pH 7.5 and fixed in 2.5% glutaraldehyde for 1.5 h, and subsequently dehydrated and embedded in Spurr's resin. Then, the block was sectioned at 60-100 nm ultra thin sections and picked up on copper grids. For routine analysis ultrathin sections were stained with 2% uranyl acetate and lead citrate. Electron micrographs were acquired with a Philips CM-100 transmission electron microscope (FEI, Hillsbrough, Oreg.) and a KODAK™ 1.6 MEGAPLUS™ digital camera.
The GFP-LC3 focal staining in cells treated with BO-110 described in the previous paragraph is consistent with the formation of autophagosomes. However, to rule out possible unspecific aggregations of ectopically expressed GFP-LC3 (Klionsky et al., 2008), the response was analyzed independently by electron microscopy (FIG. 1D).

Data set [13] has as its system IFIT-1. As to the kind of experiment: IFIT-1 mRNA by quantitative PCR, B16 melanoma cells. In kind it is cell-based, mouse. On the procedure: as §2, §3
For data set [14], the system named is melanoma. As to conditions: naked pIC, clinical studies (Robinson et al., 1976); cited from earlier work.
[15] abbreviates: 20 hours after treatment with BO-110.

Non-standard residues stand in square brackets, D forms with d. Residues, ends and D or L forms follow the SMILES beside them. *: point of attachment. Sta = CC(C)C[C@H](N)[C@@H](O)CC(=O)O; Isovaleryl = CC(C)CC(=O)*; Cbz = O=C(OCc1ccccc1)*; CH2F = FC*

In the case of `Cn1cnc(N)c2ncnc1-2` [3-MA, 3-methyladenine], in data set [1], the “effect of autophagy inhibitor on GFP-LC3 foci / autophagosomes induced by BO-110” value is reported as “blocked GFP-LC3 foci formation by BO-110”.
Consider `COc1cccc2c1C(=O)c1c(O)c3c(c(O)c1C2=O)C[C@@](O)(C(=O)CO)C[C@@H]3O[C@H]1C[C@H](N)[C@H](O)[C@H](C)O1` [DOX, doxorubicin], for which the “DOX: response to doxorubicin, percentage of cell death” value is “− (<30%)” in [2] (SK-Mel-103, doxorubicin 0.5 μg/ml, 30 h); “− (<30%)” in data set [3] (SK-Mel-147, doxorubicin 0.5 μg/ml, 30 h); “++ (100-70)” in [4]; “− (<30%)” in [5].
On to `CCOC(=O)[C@H]1O[C@@H]1C(=O)N[C@@H](CC(C)C)C(=O)NCCC(C)C` [E64d], for which the “reduction of the extent of cell death by BO-110” value in data set [2] (setting [15]) is 50%.
As to `O=S(=O)([O-])c1cc(O)c(O)c(S(=O)(=O)[O-])c1.[Na+].[Na+]` [TIRON™], the “effect of antioxidant on cell death by BO-110” value (from here on “effect of antioxidant”) in data set [3] was “no significant effects”.
`Cc1c(C)c2c(c(C)c1O)CCC(C)(C(=O)O)O2` (stereo not drawn) [TROLOX™]: in data set [3], the “effect of antioxidant” value is “no significant effects”.
Take `CC(C)C[C@H](NC(=O)[C@H](Cc1ccccc1)NC(=O)c1cnccn1)B(O)O` [bortezomib, Bortezomib]: the “NOXA induction (in words)” value in data set [6] is recorded as “activates NOXA potently”. For the same compound, the MCL-1 levels entry in data set [7] was “induces a simultaneous accumulation of MCL-1”. The “induction of MDA-5 processing (30 kD band)” value in data set [8] is given as “no effect on MDA-5 levels or processing”.
Turning to `CCN(CC)CCCC(C)Nc1ccnc2cc(Cl)ccc12` (stereo not drawn) [chloroquine, Chloroquine], the “inhibitory effect on cell death triggered by BO-110” value in [2] (setting [15]) is “blocked melanoma cell death triggered by BO-110”. In data set [1], the “effect of autophagy inhibitor on GFP-LC3 foci / autophagosomes induced by BO-110” value is on record as “autophagosomes accumulated”. In addition, in data set [9], the “lysosomal proteolysis: DQ-BSA cleavage” value is recorded as “minimum of fluorescence emission due to DQ-BSA”.
In the case of `CC(C)CC(=O)N[C@H](C(=O)N[C@H](C(=O)N[C@@H](CC(C)C)[C@@H](O)CC(=O)N[C@@H](C)C(=O)N[C@@H](CC(C)C)[C@@H](O)CC(=O)O)C(C)C)C(C)C` [pepstatin A] (Isovaleryl-VV[Sta]A[Sta]-OH), in [2] (setting [15]), the “reduction of the extent of cell death by BO-110” value stood at 50%.
For `COC(=O)C[C@H](NC(=O)[C@H](C)NC(=O)[C@@H](NC(=O)OCc1ccccc1)C(C)C)C(=O)CF` [z-VAD-fmk] (Cbz-Val-Ala-Asp(OMe)-CH2F), the “inhibition of BO-110 killing” value in data set [3] (SK-Mel-147, BO-110 plus pan-caspase inhibitor) turned out to be 70%.
As for IFN-α, the “effect on melanoma cell viability” value in [2] (high doses, 10 times over levels secreted after BO-110, 24 h) is recorded as “unable to affect melanoma cell viability”.
Take polyinosine-polycytidylic acid [pIC]: in data set [10], the “induction of IFN target IFIT-1” value is reported as “PEI was dispensable for pIC-mediated induction of IFN targets”. In addition, the “reduction of antimelanoma activity of pIC when PEI was not included” value in data set [11] was 70-80%. Moreover, the “autophagosome formation (electron microscopy)” value in data set [12] is listed as “minimal activity as inducer of autophagy”. Besides, the “NOXA induction (in words)” value in data set [6] was “failed to induce NOXA consistently or in a sustained manner”. The “induction of IFN target IFIT-1” value in data set [13] is “unable to induce IFIT-1”. In addition, in data set [14], the “antitumoral effect for melanoma” value is “absence of antitumoral effect for melanoma”, the “induction of IFN” value is “low induction of IFN” and the stability entry is given as “low stability”. The “induction of MDA-5 processing (30 kD band)” value in [8] is on record as “significantly lower levels”.
For the compound vitamin E, the “effect of antioxidant” value in data set [3] is recorded as “no significant effects”.
